Patent US8101603B2, “Tyrosine kinase inhibitors” (Merck Sharp & Dohme Corp., priority 2006, dated 2012)
pIC50: −log10 of the molar value.

Each molecule was assayed against T1, human c-Met (Homo sapiens, UniProt P08581) (assay: In vitro c-Met kinase assay (homogeneous time-resolved fluorescence)). Conditions: recombinant GST-tagged c-Met cytosolic domain, 50 μM MgATP, HTRF.
T1 construct: Recombinant GST-tagged cytosolic domains of human c-Met; 6xHis; made in house; host or cells: Sf9 or Sf21 insect cells (baculovirus, Pharmingen pGcGHLT vector)
T1 sequence (P08581 956-1390 limits assumed): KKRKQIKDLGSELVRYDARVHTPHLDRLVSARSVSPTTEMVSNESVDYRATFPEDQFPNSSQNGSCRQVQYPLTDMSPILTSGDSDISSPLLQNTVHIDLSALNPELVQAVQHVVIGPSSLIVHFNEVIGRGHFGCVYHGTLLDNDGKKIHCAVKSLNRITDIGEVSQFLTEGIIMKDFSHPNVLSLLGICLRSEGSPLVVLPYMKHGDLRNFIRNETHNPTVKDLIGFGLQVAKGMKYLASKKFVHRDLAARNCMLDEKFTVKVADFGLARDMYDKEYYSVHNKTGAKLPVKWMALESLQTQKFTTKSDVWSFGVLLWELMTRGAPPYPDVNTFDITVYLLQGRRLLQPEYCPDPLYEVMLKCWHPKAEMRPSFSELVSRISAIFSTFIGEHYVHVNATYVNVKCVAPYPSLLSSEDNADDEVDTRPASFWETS
Format: biochemical
Source text: Recombinant GST-tagged cytosolic domains of human c-Met and other receptor tyrosine kinases including mouse c-Met, human Ron, KDR, IGFR, EGFR, FGFR, Mer, TrkA and Tie2 are used to determine whether the compounds of the instant invention modulate the enzymatic activities of these kinases.
Soluble recombinant GST-tagged cytosolic domains of c-Met and other receptor tyrosine kinases are expressed in a baculovirus system (Pharmingen) according to a protocol recommended by the manufacturer. The c-DNA encoding each cytosolic domain is subcloned into a baculovirus expression vector (pGcGHLT-A, B or C, Pharmingen) containing an in frame 6× histidine tag and a GST tag. The resulting plasmid construct and BaculoGold baculovirus DNA (Pharmingen) are used to co-transfect Sf9 or Sf21 insect cells. After confirming expression of GST-tagged kinase fusion, a high titer recombinant baculovirus stock is produced, expression conditions are optimized, and a scaled up expression of rat KDR-GST fusion is performed. The fusion kinase is then purified from the insect cell lysate by affinity chromatography using glutathione agarose (Pharmingen). The purified protein is dialyzed against 50% glycerol, 2 mM DTT, 50 mM Tris-HCl (pH 7.4) and stored at −20° C. The protein concentrations of the fusion proteins are determined using Coomassie Plus Protein Assay (Pierce) with BSA as standard.
The procedure for determining the potency of a compound to inhibit c-Met kinase comprises the following steps: • 1. Prepare 3-fold serial diluted compound solutions in 100% dimethyl sulfoxide (DMSO) at 20× of the desired final concentrations in a 96 well plate. • 2. […] In a black assay plate, add 2.5 μl of compound solution (or DMSO) and 37.5 μl of master reaction mix per well. Initiate the kinase reaction by adding 10 μl of 0.25 mM MgATP per well. Allow the reactions to proceed for 80 min at room temperature. The final conditions for the reaction are 0.2 nM c-Met, 0.5 μM substrate, 50 μM MgATP, 5 mM MgCl2, 100 mM NaCl, 2 mM DTT, 0.1 mg/ml BSA, 50 mM Tris (pH 7.4) and 5% DMSO. • 4. […] Read HTRF signals on a Victor reader (PerkinElmer) in HTRF mode after 60 min. • 6.

pIC50, ≥ 4.30:
CN(C)S(=O)(=O)C(F)c1ccc2ccc3ncc(-c4cnn(C)c4)cc3c(=O)c2c1 (stereo not shown) [Compound 4-2, 1-Fluoro-N,N-dimethyl-1-[3-(1-methyl-1H-pyrazol-4-yl)-5-oxo-5H-benzo[4,5]cyclohepta[1,2-b]pyridin-7-yl]methanesulfonamide]
CN(C)S(=O)(=O)C(F)(F)c1ccc2ccc3ncc(-c4cnn(C)c4)cc3c(=O)c2c1 [Compound 4-1, 1,1-Difluoro-N,N-dimethyl-1-[3-(1-methyl-1H-pyrazol-4-yl)-5-oxo-5H-benzo[4,5]cyclohepta[1,2-b]pyridin-7-yl]methanesulfonamide]
CC(c1ccc2ccc3ncc(-c4cnn(C)c4)cc3c(=O)c2c1)S(=O)(=O)N(C)c1ccccc1 (stereo not shown) [Compound 7-1, N-methyl-1-[3-(1-methyl-1H-pyrazol-4-yl)-5-oxo-5H-benzo[4,5]cyclohepta[1,2-b]pyridin-7-yl]-N-phenylethanesulfonamide]
Cn1cc(-c2cnc3ccc4ccc(CS(=O)(=O)Nc5cccnc5)cc4c(=O)c3c2)cn1 [Compound 5-5, 1-[3-(1-methyl-1H-pyrazol-4-yl)-5-oxo-5H-benzo[4,5]cyclohepta[1,2-b]pyridin-7-yl]-N-pyridin-3-ylmethanesulfonamide]
